Each structure is given as a SMILES string.

Test system in the first data set: not listed separately
In words: Assessment of cytotoxicity in Huh-7 cells, assessed as % inhibition of cell viability by Celltiter-Glo assay after 48 hrs. The conditions noted are these: human, conc 1 uM, read-out: Inhibition. The data set is classed as toxicity, cell-based.
As to `CCOC(=O)c1c(CSc2ccccc2)n(C)c2cc(Br)c(O)c(CN(C)C)c12` [UMIFENOVIR], the cytotoxicity at 48 h, 1 µM came to 1%.
For the compound `CCCCc1oc2ccccc2c1C(=O)c1cc(I)c(OCCN(CC)CC)c(I)c1` [AMIODARONE], the cytotoxicity at 48 h, 1 µM was 1%.
Still for that read-out and setting: under `CCN(CC)CCCC(C)Nc1ccnc2cc(Cl)ccc12` (stereo not drawn) [CHLOROQUINE] stands 2%; under `CN(C)CCOc1ccc(/C(=C(/CCCl)c2ccccc2)c2ccccc2)cc1` [TOREMIFENE], 1%.
The same measure, in the same setting: the result for `CCN(CC)Cc1cc(Nc2ccnc3cc(Cl)ccc23)ccc1O` [AMODIAQUINE] reads 1%; that for `CCN(CC)CCOc1ccc(C(=C(Cl)c2ccccc2)c2ccccc2)cc1` [CLOMIPHENE], 2%.

Still in this data set, the particulars now being: human, conc 5 uM, read-out: Inhibition.
Regarding `CCOC(=O)c1c(CSc2ccccc2)n(C)c2cc(Br)c(O)c(CN(C)C)c12` [UMIFENOVIR], the cytotoxicity at 48 h, 5 µM turned out to be 10%.
`CCCCc1oc2ccccc2c1C(=O)c1cc(I)c(OCCN(CC)CC)c(I)c1` [AMIODARONE]: the cytotoxicity at 48 h, 5 µM came to 2%.
Regarding `CCN(CC)CCCC(C)Nc1ccnc2cc(Cl)ccc12` (stereo not drawn) [CHLOROQUINE], the cytotoxicity at 48 h, 5 µM was 3%.
Still for that read-out and setting: under `CN(C)CCOc1ccc(/C(=C(/CCCl)c2ccccc2)c2ccccc2)cc1` [TOREMIFENE] stands 10%; under `CCN(CC)Cc1cc(Nc2ccnc3cc(Cl)ccc23)ccc1O` [AMODIAQUINE], -5%; under `CCN(CC)CCOc1ccc(C(=C(Cl)c2ccccc2)c2ccccc2)cc1` [CLOMIPHENE], 12%.

For a further data set, the system named is SARS-CoV-2. In words: Inhibition of SARS-CoV-2 pseudoparticle entry in Huh-7 cells, assessed by luciferase assay after 72 hrs. It is filed as functional, Homo sapiens. The conditions noted are these: Severe acute respiratory syndrome coronavirus 2, Huh-7, 72 h; CONC 1 uM.
On to `CCOC(=O)c1c(CSc2ccccc2)n(C)c2cc(Br)c(O)c(CN(C)C)c12` [UMIFENOVIR], for which the inhibition at 1 µM worked out at 5%.
Compound `CCCCc1oc2ccccc2c1C(=O)c1cc(I)c(OCCN(CC)CC)c(I)c1` [AMIODARONE] registered an inhibition at 1 µM of 55%.
In turn, `CCN(CC)CCCC(C)Nc1ccnc2cc(Cl)ccc12` (stereo not drawn) [CHLOROQUINE] came in with an inhibition at 1 µM of 50%.
Still for that read-out and setting: under `CN(C)CCOc1ccc(/C(=C(/CCCl)c2ccccc2)c2ccccc2)cc1` [TOREMIFENE] stands 30%.
On the same count and under the same terms, under `CCN(CC)Cc1cc(Nc2ccnc3cc(Cl)ccc23)ccc1O` [AMODIAQUINE] stands 70%.
Consider `CCN(CC)CCOc1ccc(C(=C(Cl)c2ccccc2)c2ccccc2)cc1` [CLOMIPHENE], for which the inhibition at 1 µM was determined as 60%.
Still for that read-out and setting: under `COc1ccc(CCN(C)CCCC(C#N)(c2ccc(OC)c(OC)c2)C(C)C)cc1OC` (stereo not drawn) stands 15%.

Still in this data set, the particulars now being: Severe acute respiratory syndrome coronavirus 2, Huh-7, 72 h; CONC 5 uM.
In turn, `CCOC(=O)c1c(CSc2ccccc2)n(C)c2cc(Br)c(O)c(CN(C)C)c12` [UMIFENOVIR] displayed an inhibition at 5 µM of 75%.
With `CCCCc1oc2ccccc2c1C(=O)c1cc(I)c(OCCN(CC)CC)c(I)c1` [AMIODARONE], the inhibition at 5 µM worked out at 70%.
Same read-out and setting: under `CCN(CC)CCCC(C)Nc1ccnc2cc(Cl)ccc12` (stereo not drawn) [CHLOROQUINE] stands 85%; under `CN(C)CCOc1ccc(/C(=C(/CCCl)c2ccccc2)c2ccccc2)cc1` [TOREMIFENE], 65%; under `CCN(CC)Cc1cc(Nc2ccnc3cc(Cl)ccc23)ccc1O` [AMODIAQUINE], 90%.
The same measure, in the same setting: under `CCN(CC)CCOc1ccc(C(=C(Cl)c2ccccc2)c2ccccc2)cc1` [CLOMIPHENE] stands 80%; under `COc1ccc(CCN(C)CCCC(C#N)(c2ccc(OC)c(OC)c2)C(C)C)cc1OC` (stereo not drawn), 50%.

The next data set concerns SARS-CoV-2. Briefly: Inhibition of SARS-CoV-2 pseudoparticle entry in human lung Airway Chip at reported drug Cmax, assessed by qRT-PCR after 48 hrs. The data set is classed as functional. Particulars: Severe acute respiratory syndrome coronavirus 2, Lung epithelium, CONC 0.81 uM.
In turn, `COc1ccc(CCN(C)CCCC(C#N)(c2ccc(OC)c(OC)c2)C(C)C)cc1OC` (stereo not drawn) showed an inhibition at 0.81 µM of 10%.

Staying with this data set, now noted: Severe acute respiratory syndrome coronavirus 2, Lung epithelium, CONC 0.83 uM.
Take `CCN(CC)CCOc1ccc(C(=C(Cl)c2ccccc2)c2ccccc2)cc1` [CLOMIPHENE]: at 0.83 µM the inhibition was 30%.

The same data set, now with this note: Severe acute respiratory syndrome coronavirus 2, Lung epithelium, CONC 1.24 uM.
`CCN(CC)Cc1cc(Nc2ccnc3cc(Cl)ccc23)ccc1O` [AMODIAQUINE] showed an inhibition at 1.24 µM of 60%.

The data set is the same for the next values; noted with them: Severe acute respiratory syndrome coronavirus 2, Lung epithelium, CONC 1.91 uM.
Turning to `CCN(CC)CCCC(C)Nc1ccnc2cc(Cl)ccc12` (stereo not drawn) [CHLOROQUINE], at 1.91 µM the inhibition was 10%.

The same data set, now with this note: Severe acute respiratory syndrome coronavirus 2, Lung epithelium, CONC 2.98 uM.
`CN(C)CCOc1ccc(/C(=C(/CCCl)c2ccccc2)c2ccccc2)cc1` [TOREMIFENE] registered an inhibition at 2.98 µM of 50%.

Still in this data set, the particulars now being: Severe acute respiratory syndrome coronavirus 2, Lung epithelium, CONC 3.89 uM.
In the case of `CCOC(=O)c1c(CSc2ccccc2)n(C)c2cc(Br)c(O)c(CN(C)C)c12` [UMIFENOVIR], the inhibition at 3.89 µM was 20%.

The data set is the same for the next values; noted with them: Severe acute respiratory syndrome coronavirus 2, Lung epithelium, CONC 20.04 uM.
In the case of `CCCCc1oc2ccccc2c1C(=O)c1cc(I)c(OCCN(CC)CC)c(I)c1` [AMIODARONE], the inhibition at 20.04 µM turned out to be 20%.
